The text below walks through data of US9365522B2, “Pyrazole amide derivative” (AMGEN INC., priority 2015, dated 2016).

The test has as its target T1, human RORγ-LBD (Homo sapiens, UniProt P51449).
T1 construct: made in house; host or cells: E. coli (BL-21)
T1 sequence (P51449 262-518): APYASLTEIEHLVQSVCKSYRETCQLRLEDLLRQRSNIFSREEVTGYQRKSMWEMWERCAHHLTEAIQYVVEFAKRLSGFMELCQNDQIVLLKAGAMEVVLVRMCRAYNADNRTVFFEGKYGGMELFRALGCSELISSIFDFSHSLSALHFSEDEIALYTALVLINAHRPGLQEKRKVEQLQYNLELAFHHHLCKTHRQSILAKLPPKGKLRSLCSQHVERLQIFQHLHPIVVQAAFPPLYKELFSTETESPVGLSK
Description: ROR gamma coactivator peptide recruitment Alphascreen assay (RORγ-LBD binding to GRIP1 coactivator peptide). The class given is biochemical. The note with it: 5 nM human RORγ-LBD, 30 nM 7-β-hydroxycholesterol, 50 nM biotinylated GRIP1 coactivator peptide, overnight incubation at room temperature; read-out: result (pIC50, RORγ coactivator peptide recruitment Alphascreen assay) (converted). In outline:
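His/Flag-tagged human RORγ-LBD (aa 262-518, E. coli-expressed, 5 nM) with agonist 7-β-hydroxycholesterol (30 nM) and biotinylated GRIP1 LXXLL peptide (50 nM) in HEPES pH 7.4 buffer, 2.5% DMSO. Compound 1-in-2 dilutions; Alphascreen bead signal read after overnight incubation at room temperature; pIC50 calculated.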
Background: Bead proximity is the source of the signal in Alpha formats.
With `COC1(CN(CC(=O)c2c(Cl)cncc2Cl)C(=O)c2cnn([C@H]3CC[C@](C)(C(=O)O)CC3)c2C(F)(F)F)CCCC1` [Example 638, trans-4-(4-((2-(3,5-dichloro-4-pyridinyl)-2-oxoethyl)((1-methoxycyclopentyl)methyl)carbamoyl)-5-(trifluoromethyl)-1H-pyrazol-1-yl)-1-methylcyclohexanecarboxylic acid], the IC50 is 15.5 nM.
For the compound `C[C@]1(C(=O)O)CC[C@H](n2ncc(C(=O)N(CC(=O)c3c(Cl)cccc3Cl)[C@@H]3CCC34CCC4)c2C(F)(F)F)CC1` [Example 639, trans-4-(4-((2-(2,6-dichlorophenyl)-2-oxoethyl)((1R)-spiro[3.3]hept-1-yl)carbamoyl)-5-(trifluoromethyl)-1H-pyrazol-1-yl)-1-methylcyclohexanecarboxylic acid], the IC50 was 57.5 nM.
Turning to `O=C(CN(C(=O)c1cnn([C@H]2CC[C@@H](C(=O)O)CC2)c1C(F)(F)F)[C@@H]1CCC12CCC2)c1c(Cl)cccc1Cl` [Example 640, cis-4-(4-((2-(2,6-dichlorophenyl)-2-oxoethyl)((1R)-spiro[3.3]hept-1-yl)carbamoyl)-5-(trifluoromethyl)-1H-pyrazol-1-yl)cyclohexanecarboxylic acid], the IC50 is 776 nM.
On to `C[C@]1(C(=O)O)CC[C@H](n2ncc(C(=O)N(CC(=O)c3c(Cl)cccc3Cl)[C@H]3CCC34CCC4)c2C(F)(F)F)CC1` [Example 641, trans-4-(4-((2-(2,6-dichlorophenyl)-2-oxoethyl)((1S)-spiro[3.3]hept-1-yl)carbamoyl)-5-(trifluoromethyl)-1H-pyrazol-1-yl)-1-methylcyclohexanecarboxylic acid], for which the IC50 was 2.14 nM.
With `O=C(CN(C(=O)c1cnn([C@H]2CC[C@@H](C(=O)O)CC2)c1C(F)(F)F)[C@H]1CCC12CCC2)c1c(Cl)cccc1Cl` [Example 642, cis-4-(4-((2-(2,6-dichlorophenyl)-2-oxoethyl)((1S)-spiro[3.3]hept-1-yl)carbamoyl)-5-(trifluoromethyl)-1H-pyrazol-1-yl)cyclohexanecarboxylic acid], the IC50 was 24 nM.
Regarding `C[C@]1(C(=O)O)CC[C@H](n2ncc(C(=O)N(CC(=O)c3c(F)cccc3Cl)CC3(F)CCCC3)c2C(F)(F)F)CC1` [Example 643, trans-4-(4-((2-(2-chloro-6-fluorophenyl)-2-oxoethyl)((1-fluorocyclopentyl)methyl)carbamoyl)-5-(trifluoromethyl)-1H-pyrazol-1-yl)-1-methylcyclohexanecarboxylic acid], the IC50 was 4.27 nM.
In the case of `CCC(CC)(CC)CN(CC(=O)c1c(Cl)cncc1Cl)C(=O)c1cnn([C@H]2CC[C@](C)(C(=O)O)CC2)c1C(F)(F)F` [Example 644, trans-4-(4-((2-(3,5-dichloro-4-pyridinyl)-2-oxoethyl)(2,2-diethylbutyl)carbamoyl)-5-(trifluoromethyl)-1H-pyrazol-1-yl)-1-methylcyclohexanecarboxylic acid], the IC50 is 3.98 nM.
Under `COC1(CN(CC(=O)c2c(Cl)cncc2Cl)C(=O)c2cnn([C@H]3CC[C@](C)(C(=O)O)CC3)c2C(F)(F)F)CCCCC1` [Example 645, trans-4-(4-((2-(3,5-dichloro-4-pyridinyl)-2-oxoethyl)((1-methoxycyclohexyl)methyl)carbamoyl)-5-(trifluoromethyl)-1H-pyrazol-1-yl)1-methylcyclohexanecarboxylic acid] stands 13.8 nM; under `COC1(CN(CC(=O)c2c(Cl)cncc2Cl)C(=O)c2cnn([C@H]3CC[C@@H](C(=O)O)CC3)c2C(F)(F)F)CCCC1` [Example 646, cis-4-(4-((2-(3,5-dichloro-4-pyridinyl)-2-oxoethyl)((1-methoxycyclopentyl)methyl)carbamoyl)-5-(trifluoromethyl)-1H-pyrazol-1-yl)cyclohexanecarboxylic acid], 295 nM.
On to `CC1(C)C[C@H]1N(CC(=O)c1c(Cl)cncc1Cl)C(=O)c1cnn([C@H]2CC[C@](C)(C(=O)O)CC2)c1C(F)(F)F` [Example 648, trans-4-(4-((2-(3,5-dichloro-4-pyridinyl)-2-oxoethyl)((1R)-2,2-dimethylcyclopropyl)carbamoyl)-5-(trifluoromethyl)-1H-pyrazol-1-yl)-1-methylcyclohexanecarboxylic acid], for which the IC50 was 32.4 nM.
In the case of `C[C@]1(C(=O)O)CC[C@H](n2ncc(C(=O)N(CC(=O)c3c(Cl)cccc3Cl)[C@H]3CCC34CCCC4)c2C(F)(F)F)CC1` [Example 649, trans-4-(4-((2-(2,6-dichlorophenyl)-2-oxoethyl)((1S)-spiro[3.4]oct-1-yl)carbamoyl)-5-(trifluoromethyl)-1H-pyrazol-1-yl)-1-methylcyclohexanecarboxylic acid], the IC50 is 1.82 nM.
For the compound `C[C@]1(C(=O)O)CC[C@H](n2ncc(C(=O)N(CC(=O)c3c(Cl)cccc3Cl)[C@@H]3CCC34CCCC4)c2C(F)(F)F)CC1` [Example 650, trans-4-(4-((2-(2,6-dichlorophenyl)-2-oxoethyl)((1R)-spiro[3.4]oct-1-yl)carbamoyl)-5-(trifluoromethyl)-1H-pyrazol-1-yl)-1-methylcyclohexanecarboxylic acid], the IC50 is 7.94 nM.
For `C[C@]1(C(=O)O)CC[C@H](n2ncc(C(=O)N(CC(=O)c3c(Cl)cccc3Cl)[C@@H]3CC34CCCC4)c2C(F)(F)F)CC1` [Example 652, trans-4-(4-((2-(2,6-dichlorophenyl)-2-oxoethyl)((1R)-spiro[2.4]hept-1-yl)carbamoyl)-5-(trifluoromethyl)-1H-pyrazol-1-yl)-1-methylcyclohexanecarboxylic acid], the IC50 was 4.37 nM.
For `C[C@]1(C(=O)O)CC[C@H](n2ncc(C(=O)N(CC(=O)c3c(Cl)cccc3Cl)[C@H]3CCOC4(CCC4)C3)c2C(F)(F)F)CC1` [Example 653, trans-4-(4-((2-(2,6-dichlorophenyl)-2-oxoethyl)((8S)-5-oxaspiro[3.5]non-8-yl)carbamoyl)-5-(trifluoromethyl)-1H-pyrazol-1-yl)-1-methylcyclohexanecarboxylic acid], the IC50 is 70.8 nM.
`C[C@]1(C(=O)O)CC[C@H](n2ncc(C(=O)N(CC(=O)c3c(Cl)cccc3Cl)[C@@H]3CCOC4(CCC4)C3)c2C(F)(F)F)CC1` [Example 654, trans-4-(4-((2-(2,6-dichlorophenyl)-2-oxoethyl)((8R)-5-oxaspiro[3.5]non-8-yl)carbamoyl)-5-(trifluoromethyl)-1H-pyrazol-1-yl)-1-methylcyclohexanecarboxylic acid]: the IC50 was 355 nM.
For the compound `CC1(C)CC[C@H](CN(CC(=O)c2c(Cl)cncc2Cl)C(=O)c2cnn([C@H]3CC[C@](C)(C(=O)O)CC3)c2C(F)(F)F)O1` [Example 655, trans-4-(4-((2-(3,5-dichloro-4-pyridinyl)-2-oxoethyl)(((2R)-5,5-dimethyltetrahydro-2-furanyl)methyl)carbamoyl)-5-(trifluoromethyl)-1H-pyrazol-1-yl)-1-methylcyclohexanecarboxylic acid], the IC50 was 26.9 nM.
With `CC1(C)C[C@@H]1N(CC(=O)c1c(Cl)cncc1Cl)C(=O)c1cnn([C@H]2CC[C@H](C(=O)O)CC2)c1C(F)(F)F` [Example 656, trans-4-(4-((2-(3,5-dichloro-4-pyridinyl)-2-oxoethyl)((1S)-2,2-dimethylcyclopropyl)carbamoyl)-5-(trifluoromethyl)-1H-pyrazol-1-yl)cyclohexanecarboxylic acid], the IC50 was 186 nM.
As to `CCC(C)(C)CN(CC(=O)c1c(F)cccc1Cl)C(=O)c1cnn([C@H]2CC[C@](C)(C(=O)O)CC2)c1C(F)(F)F` [Example 657, trans-4-(4-((2-(2-chloro-6-fluorophenyl)-2-oxoethyl)(2,2-dimethylbutyl)carbamoyl)-5-(trifluoromethyl)-1H-pyrazol-1-yl)-1-methylcyclohexanecarboxylic acid], the IC50 is 2.24 nM.
`CC1(C)[C@@H]2C[C@H](N(CC(=O)c3c(F)cccc3Cl)C(=O)c3cnn([C@H]4CC[C@](C)(C(=O)O)CC4)c3C(F)(F)F)C[C@@H]21` [Example 658, trans-4-(4-((2-(2-chloro-6-fluorophenyl)-2-oxoethyl)((1R,3r,5S)-6,6-dimethylbicyclo[3.1.0]hex-3-yl)carbamoyl)-5-(trifluoromethyl)-1H-pyrazol-1-yl)-1-methylcyclohexanecarboxylic acid]: the IC50 is 1.95 nM.
Under `CC(C)(C)CN(CC(=O)c1c(Cl)cncc1Cl)C(=O)c1cnn([C@@H]2CCCC[C@H]2CC(=O)O)c1C(F)(F)F` [Example 659, ((1S,2R)-2-(4-((2-(3,5-dichloro-4-pyridinyl)-2-oxoethyl)(2,2-dimethylpropyl)carbamoyl)-5-(trifluoromethyl)-1H-pyrazol-1-yl)cyclohexyl)acetic acid] stands 331 nM.
For the compound `C[C@@]1(CN(CC(=O)c2c(Cl)cncc2Cl)C(=O)c2cnn([C@H]3CC[C@](C)(C(=O)O)CC3)c2C(F)(F)F)CCCO1` [Example 660, trans-4-(4-((2-(3,5-dichloro-4-pyridinyl)-2-oxoethyl)(((2S)-2-methyltetrahydro-2-furanyl)methyl)carbamoyl)-5-(trifluoromethyl)-1H-pyrazol-1-yl)-1-methylcyclohexanecarboxylic acid], the IC50 is 25.7 nM.
